The target of assay [1] is T1, 5-hydroxytryptamine receptor 1A (Homo sapiens, UniProt P08908).
T1 sequence (P08908 whole entry): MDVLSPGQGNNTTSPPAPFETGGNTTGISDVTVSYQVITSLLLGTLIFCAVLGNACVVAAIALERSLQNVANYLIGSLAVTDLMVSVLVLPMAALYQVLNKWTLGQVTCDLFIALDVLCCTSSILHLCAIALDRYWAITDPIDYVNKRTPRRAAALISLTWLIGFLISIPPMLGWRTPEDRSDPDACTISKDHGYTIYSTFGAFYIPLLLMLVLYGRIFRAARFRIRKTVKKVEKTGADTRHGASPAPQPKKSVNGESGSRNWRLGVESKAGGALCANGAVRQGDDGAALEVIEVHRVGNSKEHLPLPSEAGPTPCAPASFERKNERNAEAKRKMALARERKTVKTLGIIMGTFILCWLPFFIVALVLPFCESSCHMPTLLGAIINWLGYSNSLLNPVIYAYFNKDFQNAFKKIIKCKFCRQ
It is filed as functional, cell-based.

In assay [2] the target is T2, Progesterone receptor (Homo sapiens, UniProt P06401).
T2 sequence (P06401 whole entry): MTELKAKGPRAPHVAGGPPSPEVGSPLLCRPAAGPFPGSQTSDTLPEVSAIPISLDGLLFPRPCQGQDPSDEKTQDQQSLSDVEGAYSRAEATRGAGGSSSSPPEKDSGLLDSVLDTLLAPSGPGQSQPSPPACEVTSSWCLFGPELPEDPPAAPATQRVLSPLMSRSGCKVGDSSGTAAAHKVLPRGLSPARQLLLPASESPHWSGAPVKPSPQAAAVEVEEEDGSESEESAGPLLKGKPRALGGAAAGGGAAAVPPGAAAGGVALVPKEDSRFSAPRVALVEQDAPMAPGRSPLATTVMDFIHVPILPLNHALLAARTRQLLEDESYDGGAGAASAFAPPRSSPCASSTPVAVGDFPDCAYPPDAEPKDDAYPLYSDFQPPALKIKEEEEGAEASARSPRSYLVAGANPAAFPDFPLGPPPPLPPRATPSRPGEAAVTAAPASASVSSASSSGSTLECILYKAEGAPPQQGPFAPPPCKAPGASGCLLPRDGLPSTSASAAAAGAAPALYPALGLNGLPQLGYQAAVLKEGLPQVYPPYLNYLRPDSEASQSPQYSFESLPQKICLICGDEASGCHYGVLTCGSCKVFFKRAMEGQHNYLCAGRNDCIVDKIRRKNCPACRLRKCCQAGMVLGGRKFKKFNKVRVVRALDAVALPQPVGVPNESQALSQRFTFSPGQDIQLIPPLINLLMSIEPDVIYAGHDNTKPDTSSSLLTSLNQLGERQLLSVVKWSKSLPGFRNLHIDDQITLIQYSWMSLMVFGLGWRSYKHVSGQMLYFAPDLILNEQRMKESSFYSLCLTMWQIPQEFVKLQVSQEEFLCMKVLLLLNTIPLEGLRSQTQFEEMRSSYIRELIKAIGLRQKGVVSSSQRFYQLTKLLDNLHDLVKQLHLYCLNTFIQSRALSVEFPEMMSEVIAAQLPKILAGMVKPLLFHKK
It is filed as functional.

The target of assay [3] is T2, Progesterone receptor. It is filed as functional. This is another data set of the same source.
Assay [4] addresses Beta-1 adrenergic receptor (Homo sapiens, UniProt P08588). It is filed as functional.
In assay [5] the target is T3, 5-hydroxytryptamine receptor 2C (Homo sapiens, UniProt P28335).
T3 sequence (P28335 whole entry): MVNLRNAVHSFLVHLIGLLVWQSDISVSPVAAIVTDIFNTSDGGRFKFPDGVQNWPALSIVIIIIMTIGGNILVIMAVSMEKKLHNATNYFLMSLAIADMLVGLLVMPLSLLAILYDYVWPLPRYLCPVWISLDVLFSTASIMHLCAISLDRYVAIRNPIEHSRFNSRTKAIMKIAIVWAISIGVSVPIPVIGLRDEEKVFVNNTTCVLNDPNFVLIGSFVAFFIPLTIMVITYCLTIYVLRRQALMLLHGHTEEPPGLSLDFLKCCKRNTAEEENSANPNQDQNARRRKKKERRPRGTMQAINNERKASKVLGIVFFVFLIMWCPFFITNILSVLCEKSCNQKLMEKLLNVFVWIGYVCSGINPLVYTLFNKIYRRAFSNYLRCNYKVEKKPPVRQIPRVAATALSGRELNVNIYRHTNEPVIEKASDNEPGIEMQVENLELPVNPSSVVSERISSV

The target in a further assay is T4, Adenosine receptor A1 (Homo sapiens, UniProt P30542).
T4 sequence (P30542 whole entry): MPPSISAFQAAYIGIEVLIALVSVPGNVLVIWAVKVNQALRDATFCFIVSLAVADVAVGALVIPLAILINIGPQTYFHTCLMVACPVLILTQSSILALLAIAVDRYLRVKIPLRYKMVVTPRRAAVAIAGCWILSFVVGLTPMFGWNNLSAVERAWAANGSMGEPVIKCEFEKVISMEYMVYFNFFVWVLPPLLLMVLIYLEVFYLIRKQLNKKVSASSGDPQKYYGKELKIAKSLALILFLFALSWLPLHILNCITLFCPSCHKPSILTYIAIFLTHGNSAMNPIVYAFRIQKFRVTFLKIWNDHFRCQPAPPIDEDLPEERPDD

Another assay concerns the target Histamine H1 receptor (Homo sapiens, UniProt P35367).
Further: assay procedure not described here.

Chain of Beta-1 adrenergic receptor (P08588 whole entry): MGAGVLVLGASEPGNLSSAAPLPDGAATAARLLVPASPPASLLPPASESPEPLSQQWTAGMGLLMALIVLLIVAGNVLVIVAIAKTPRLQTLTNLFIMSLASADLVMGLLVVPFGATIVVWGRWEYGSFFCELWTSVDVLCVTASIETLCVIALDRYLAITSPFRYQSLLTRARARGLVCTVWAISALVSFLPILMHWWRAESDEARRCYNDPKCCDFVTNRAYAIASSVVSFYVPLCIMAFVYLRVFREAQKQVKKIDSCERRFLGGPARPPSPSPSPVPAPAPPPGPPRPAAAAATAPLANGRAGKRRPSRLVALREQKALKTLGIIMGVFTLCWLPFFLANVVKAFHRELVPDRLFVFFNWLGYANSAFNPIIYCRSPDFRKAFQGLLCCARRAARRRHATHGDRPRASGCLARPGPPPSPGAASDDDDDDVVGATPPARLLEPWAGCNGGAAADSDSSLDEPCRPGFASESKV
Chain of Histamine H1 receptor (P35367 whole entry): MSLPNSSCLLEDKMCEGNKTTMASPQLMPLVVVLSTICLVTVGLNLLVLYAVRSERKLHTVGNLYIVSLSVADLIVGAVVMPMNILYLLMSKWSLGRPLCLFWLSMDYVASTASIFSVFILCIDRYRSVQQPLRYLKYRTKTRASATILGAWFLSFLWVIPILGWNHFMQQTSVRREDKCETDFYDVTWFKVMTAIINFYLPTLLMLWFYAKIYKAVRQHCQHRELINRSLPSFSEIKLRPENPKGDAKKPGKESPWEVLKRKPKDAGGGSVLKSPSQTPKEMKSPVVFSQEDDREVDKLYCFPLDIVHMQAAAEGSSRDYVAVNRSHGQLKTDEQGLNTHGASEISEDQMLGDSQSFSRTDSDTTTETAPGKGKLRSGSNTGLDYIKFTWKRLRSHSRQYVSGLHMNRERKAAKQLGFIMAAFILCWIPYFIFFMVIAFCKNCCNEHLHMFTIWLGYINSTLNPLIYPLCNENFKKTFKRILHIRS

Consider `COc1ccc(/C=C/C(=O)Nc2ccccc2C(=O)O)cc1OC`, for which the AC50 (in assay [1]; at Progesterone receptor [2]; on Progesterone receptor [3]; in assay [4]; in assay [5]; at Adenosine receptor A1) was above 30 µM each time.

Consider `NCCCC(O)(P(=O)(O)O)P(=O)(O)O` [ALENDRONIC ACID], for which the AC50 in assay [1] was above 10 µM; in assay [4], above 10 µM; in assay [5], above 30 µM; at Adenosine receptor A1, above 30 µM.

On to `Nc1ccc(C(=O)O)c(O)c1` [AMINOSALICYLIC ACID], for which the AC50 (in assay [1]; on Progesterone receptor [2]; at Progesterone receptor [3]; in assay [4]; in assay [5]; on Adenosine receptor A1) was above 30 µM each time.

With `COc1cc(OC)c(C(=O)CCCN2CCCC2)c(OC)c1` [BUFLOMEDIL], the AC50 (in assay [1]; on Progesterone receptor [2]; at Progesterone receptor [3]; in assay [4]; in assay [5]; on Adenosine receptor A1) was above 30 µM throughout.

Regarding `CS(=O)(=O)OCCCCOS(C)(=O)=O` [BUSULFAN], the AC50 (in assay [1]; on Progesterone receptor [2]; on Progesterone receptor [3]; in assay [4]; in assay [5]; at Adenosine receptor A1) was above 30 µM each time.

Regarding `CCCCCCNC(=O)n1cc(F)c(=O)[nH]c1=O` [CARMOFUR], the AC50 (in assay [1]; on Progesterone receptor [2]; at Progesterone receptor [3]; in assay [4]; in assay [5]; on Adenosine receptor A1) was above 30 µM in each case.

Turning to `CC(C)(C)NCC(O)c1cc(Cl)c(N)c(Cl)c1` (stereo not drawn) [CLENBUTEROL], the AC50 in assay [1] was 3.02 µM; at Progesterone receptor [2], above 30 µM; at Progesterone receptor [3], above 30 µM; in assay [4], 0.112 µM; in assay [5], above 30 µM; on Adenosine receptor A1 it was above 30 µM.

For `COc1cccc2c1C(=O)c1c(O)c3c(c(O)c1C2=O)C[C@@](O)(C(C)=O)C[C@@H]3O[C@H]1C[C@H](N)[C@H](O)[C@H](C)O1` [DAUNORUBICIN], the half-maximal activity concentration (AC50) on Progesterone receptor [2] is above 3 µM; at Progesterone receptor [3], 7.42 µM; in assay [4], 28 µM; in assay [5], 14.1 µM; at Adenosine receptor A1, above 30 µM.

Consider `C[C@@H]1C[C@H]2[C@@H]3C[C@H](F)C4=CC(=O)C=C[C@]4(C)[C@@]3(F)[C@@H](O)C[C@]2(C)[C@H]1C(=O)CO` [DIFLUCORTOLONE], for which the AC50 is above 0.03 µM on Progesterone receptor [2], 0.052 µM at Progesterone receptor [3] and above 30 µM on Histamine H1 receptor.

`CC(=O)OCC(CCn1cnc2cnc(N)nc21)COC(C)=O` [FAMCICLOVIR]: the AC50 was above 10 µM in assay [1], above 10 µM in assay [4], above 30 µM in assay [5] and above 30 µM at Adenosine receptor A1.

For `Nc1ccn([C@@H]2O[C@H](CO)[C@@H](O)C2(F)F)c(=O)n1` [GEMCITABINE], the AC50 in assay [1] was above 10 µM; on Progesterone receptor [2], above 30 µM; at Progesterone receptor [3] it was above 30 µM; in assay [4], above 30 µM; in assay [5], above 30 µM; at Adenosine receptor A1, above 30 µM.

Consider `COC1=C(OC)C(=O)C(CCCCCCCCCCO)=C(C)C1=O` [IDEBENONE], for which the AC50 in assay [1] is above 10 µM; in assay [4], above 10 µM; in assay [5] it was above 10 µM; at Adenosine receptor A1, above 30 µM.

With `Nc1nc2c(c(=O)[nH]1)N(C=O)C(CNc1ccc(C(=O)N[C@@H](CCC(=O)O)C(=O)O)cc1)CN2` (stereo partly drawn) [LEUCOVORIN], the AC50 (in assay [1]; at Progesterone receptor [2]; on Progesterone receptor [3]; in assay [4]; in assay [5]; at Adenosine receptor A1) was above 30 µM each time.

Regarding `CCn1cc(C(=O)O)c(=O)c2cc(F)c(N3CCN(C)CC3)cc21` [PEFLOXACIN], the AC50 (in assay [1]; at Progesterone receptor [2]; at Progesterone receptor [3]; in assay [4]; in assay [5]; on Adenosine receptor A1) was above 30 µM in each case.

In assay [5], `C[n+]1ccccc1/C=N/O` [PRALIDOXIME] showed an AC50 above 30 µM.

For `CCCNC(C)C(=O)Nc1ccccc1C` (stereo not drawn) [PRILOCAINE], the AC50 in assay [1] is above 30 µM; on Progesterone receptor [2] it was 3.9 µM; at Progesterone receptor [3], above 30 µM; in assay [4] it was above 30 µM; in assay [5], above 30 µM; at Adenosine receptor A1, above 30 µM.

As to `CC(C)CC(N(C)C)C1(c2ccc(Cl)cc2)CCC1` (stereo not drawn) [SIBUTRAMINE], the AC50 in assay [1] is above 30 µM; in assay [4] it was above 10 µM; in assay [5], above 30 µM; on Adenosine receptor A1, above 30 µM.

On to `[H]/N=C(/N)N[C@H]1[C@H](O)[C@@H](O)[C@H](O[C@@H]2O[C@@H](C)[C@](O)(C=O)[C@H]2O[C@@H]2O[C@@H](CO)[C@H](O)[C@@H](O)[C@@H]2NC)[C@@H](N/C(N)=N\[H])[C@@H]1O` [STREPTOMYCIN], for which the AC50 (in assay [1]; at Progesterone receptor [2]; at Progesterone receptor [3]; in assay [4]; in assay [5]; at Adenosine receptor A1) was above 30 µM each time.

In the case of `CC(C)(C)NC[C@H](O)COc1nsnc1N1CCOCC1` [TIMOLOL], the concentration at half-maximal activity (AC50) (in assay [1]; on Progesterone receptor [2]; at Progesterone receptor [3]; in assay [5]; at Adenosine receptor A1) was above 30 µM each time.

Regarding `COc1cc2nccc(Oc3ccc(NC(=O)Nc4cc(C)on4)c(Cl)c3)c2cc1OC` [TIVOZANIB], the AC50 at Progesterone receptor [2] is above 3 µM; at Progesterone receptor [3], above 3 µM; at Histamine H1 receptor, above 30 µM.

As to `Cc1cccc(N(C)C(=S)Oc2ccc3ccccc3c2)c1` [TOLNAFTATE], the concentration at half-maximal activity (AC50) in assay [1] is above 10 µM; at Progesterone receptor [2], above 30 µM; at Progesterone receptor [3], above 30 µM; in assay [4], above 10 µM; in assay [5] it was above 30 µM; on Adenosine receptor A1, above 10 µM.

Consider `CN1[C@@H]2CC[C@H]1C[C@@H](OC(=O)c1c[nH]c3ccccc13)C2` [TROPISETRON], for which the AC50 (in assay [1]; in assay [4]; in assay [5]; at Adenosine receptor A1) was above 30 µM in each case.

As for `COc1ccc(C(CN(C)C)C2(O)CCCCC2)cc1` (stereo not drawn) [VENLAFAXINE], the AC50 in assay [1] is above 30 µM; in assay [4], above 10 µM; in assay [5], above 30 µM; at Adenosine receptor A1 it was above 30 µM.

One may read the AC50 as the concentration giving half of the maximal activity seen. The low end stands for activity at low concentration, the high end for activity only at high concentration.

Values taken from ChEMBL document CHEMBL5291721, “A preclinical secondary pharmacology resource illuminates target-adverse drug reaction associations of marketed drugs” (Nat Commun, 2023).
